The structures appear in SMILES notation.

This assay has as its target T1, Lp-PLA2 from plasma (pooled human plasma) (Homo sapiens, UniProt Q13093).
T1 construct: 8 μL pooled human plasma; from tissue; host or cells: pooled human plasma
T1 sequence (Q13093 22-441): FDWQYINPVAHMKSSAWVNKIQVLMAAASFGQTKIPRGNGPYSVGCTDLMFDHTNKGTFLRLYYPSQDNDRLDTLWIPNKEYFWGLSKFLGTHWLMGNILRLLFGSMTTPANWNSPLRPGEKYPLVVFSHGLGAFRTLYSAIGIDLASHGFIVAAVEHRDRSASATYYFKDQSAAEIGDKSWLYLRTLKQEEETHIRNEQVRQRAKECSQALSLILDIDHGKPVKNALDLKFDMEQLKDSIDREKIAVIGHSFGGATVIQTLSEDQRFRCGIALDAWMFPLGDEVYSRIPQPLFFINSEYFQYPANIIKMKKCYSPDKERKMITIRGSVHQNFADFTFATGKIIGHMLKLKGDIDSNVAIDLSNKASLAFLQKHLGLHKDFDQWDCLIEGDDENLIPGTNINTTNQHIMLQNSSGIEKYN
Put plainly: Lp-PLA2 human plasma assay (Thio-PAF assay). The format is biochemical. The following applies: text thresholds, read-out: pIC50 values in the thio-PAF assay (converted). The source says:
(3) Lipoprotein-Associated Phospholipase A2 (Lp-PLA2) Human Plasma Assay (Also Referred to as “Thio-PAF Assay”)
The human plasma assay utilizes a thioester analog of PAF (phosphatidylcholine), where hydrolysis yields to the formation of a phospholipid containing a free thiol group. The amount of thiol is quantitated continuously by reacting with CPM (7-diethylamino-3-(4′-maleimidylphenyl)-4-methylcoumarin), a maleimide which increases in fluoresence after Michael addition of thiols. This assay may detect the activity of Lp-PLA2 from plasma, as determined by specific inhibition by Lp-PLA2 inhibitors.
The thio-PAF assay was run as a quenched 15 μL assay. Compounds source plate was prepared by making 1:3 (by volume) serial dilution of the compounds into pure DMSO on 384-well microplate. 0.01 μL of compounds on compound source plate were transferred to 384 well Greiner 784076 (black) low-volume plates by ECHO liquid dispenser. 8 μL pooled human plasma, which was previously aliquoted and frozen, was added. Plates were centrifuged for 10 sec at 500 rpm. After 30 minutes preincubation, 2 μL of substrate (2.5 mM thio-PAF, 3.2 mM NEM (N-ethylmaleimide) [made fresh daily in DMSO], and 32 μM CPM [from a DMSO stock] in assay buffer of 50 mM HEPES, pH7.4, 150 mM NaCl, 1 mM CHAPS was added to 384 well Greiner 784076 (black) low-volume plates by BRAVO liquid handling station. Plates were centrifuged for 10 sec at 500 rpm. Plate was covered to protect from light and incubated for 2 min at room temperature. Reaction was quenched with 5 μL of 5% aqueous trifluoroacetic acid (TFA). Plates were covered to protect from light and incubated for 40 min at room temperature. Plates were read at ex: 380/em: 485 using-Envision microplate reader. PIC50 data, curve and QC analysis was conducted by using XLFit module in Excel.
Consider `Cn1cc(Cc2cn(C)c(SCCc3ccc(Oc4ccc(Cl)c(C(F)(F)F)c4)cc3)nc2=O)cn1` [E113, 2-{[2-(4-{[4-chloro-3-(trifluoromethyl)phenyl]oxy}phenyl)ethyl]thio}-1-methyl-5-[(1-methyl-1H-pyrazol-4-yl)methyl]-4(1H)-pyrimidinone], for which the IC50 was not above 100 nM.
For the compound `O=c1nc(OCCc2ccc(Oc3ccc(Cl)c(C(F)(F)F)c3)cc2)[nH]cc1Cc1cnc(C(F)(F)F)nc1` [E126, 2-{[2-(4-{[4-chloro-3-(trifluoromethyl)phenyl]oxy}phenyl)ethyl]oxy}-5-{[2-(trifluoromethyl)-5-pyrimidinyl]methyl}-4(1H)-pyrimidinone], the IC50 is not above 1000 nM.
Turning to `COc1ncc(Cc2c[nH]c(OCCc3ccc(Oc4ccc(C)c(F)c4)cc3)nc2=O)cn1` [E157, 2-[(2-{4-[(3-fluoro-4-methylphenyl)oxy]phenyl}ethyl)oxy]-5-{[2-(methyloxy)-5-pyrimidinyl]methyl}-4(1H)-pyrimidinone], the IC50 was not above 1000 nM.
Turning to `COc1ncc(Cc2c[nH]c(OCCc3ccc(Oc4cc(Cl)cc(C(F)(F)F)c4)cc3)nc2=O)cn1` [E165, 2-{[2-(4-{[3-chloro-5-(trifluoromethyl)phenyl]oxy}phenyl)ethyl]oxy}-5-{[2-(methyloxy)-5-pyrimidinyl]methyl}-4(1H)-pyrimidinone], the IC50 is not above 100 nM.
`COc1ncc(Cc2c[nH]c(OCCc3ccc(Oc4cnc(C(F)(F)F)nc4)c(F)c3)nc2=O)cn1` [E167, 2-(3-fluoro-4-((2-(trifluoromethyl)pyrimidin-5-yl)oxy)phenethoxy)-5-((2-methoxypyrimidin-5-yl)methyl)pyrimidin-4(1H)-one]: the IC50 is not above 100 nM.
Take `O=c1nc(OCCc2cc(F)c(Oc3cnc(C(F)(F)F)nc3)c(F)c2)[nH]cc1Cc1cncnc1` [E168]: the IC50 is not above 100 nM.
As for `COc1ncc(Cc2c[nH]c(OCCc3cc(F)c(Oc4cnc(C(F)(F)F)nc4)c(F)c3)nc2=O)cn1` [E169, 2-(3,5-difluoro-4-((2-(trifluoromethyl)pyrimidin-5-yl)oxy)phenethoxy)-5-((2-methoxypyrimidin-5-yl)methyl)pyrimidin-4(1H)-one], the IC50 is not above 100 nM.
Under `CCc1cn(C)c(OCCc2ccc(Oc3ccc(Cl)c(C(F)(F)F)c3)c(F)c2)nc1=O` [E174, 2-{[2-(4-{[4-chloro-3-(trifluoromethyl)phenyl]oxy}-3-fluorophenyl)ethyl]oxy}-5-ethyl-1-methyl-4(1H)-pyrimidinone] stands not above 100 nM; under `CCc1cn(C)c(OCCc2cc(F)c(Oc3ccc(Cl)c(C(F)(F)F)c3)c(F)c2)nc1=O` [E175, 2-{[2-(4-{[4-chloro-3-(trifluoromethyl)phenyl]oxy}-3,5-difluorophenyl)ethyl]oxy}-5-ethyl-1-methyl-4(1H)-pyrimidinone], not above 100 nM.
Under `COc1ncc(Cc2c[nH]c(OCCc3cc(F)c(Oc4ccc(Cl)c(C(F)(F)F)c4)c(F)c3)nc2=O)cn1` [E176, 2-{[2-(4-{[4-chloro-3-(trifluoromethyl)phenyl]oxy}-3,5-difluorophenyl)ethyl]oxy}-5-{[2-(methyloxy)-5-pyrimidinyl]methyl}-4(1H)-pyrimidinone] stands not above 100 nM; under `O=c1nc(OCCc2ccc(Oc3ccc(Cl)c(OC(F)(F)F)c3)cc2)[nH]cc1Cc1cncnc1` [E177, 2-(4-(4-chloro-3-(trifluoromethoxy)phenoxy)phenethoxy)-5-(pyrimidin-5-ylmethyl)pyrimidin-4(1H)-one], not above 100 nM; under `COc1ncc(Cc2c[nH]c(OCCc3ccc(Oc4ccc(Cl)c(OC(F)(F)F)c4)cc3)nc2=O)cn1` [E178, 2-(4-(4-chloro-3-(trifluoromethoxy)phenoxy)phenethoxy)-5-((2-methoxypyrimidin-5-yl)methyl)pyrimidin-4(1H)-one], not above 100 nM.
`O=c1nc(NCCc2ccc(Oc3cccc(C(F)(F)F)c3)cc2)[nH]cc1Cc1cncnc1` [E185, 5-Pyrimidin-5-ylmethyl-2-{2-[4-(3-trifluoromethyl-phenoxy)-phenyl]-ethylamino}-1H-pyrimidin-4-one]: the IC50 was not above 1000 nM.
To `COc1ncc(Cc2c[nH]c(NCCc3ccc(Oc4ccc(C(F)(F)F)cn4)cc3)nc2=O)cn1` [E186, 5-(2-methoxy-pyrimidin-5-ylmethyl)-2-{2-[4-(5-trifluoromethyl-pyridin-2-yloxy)phenyl]-ethylamino}-1H-pyrimidin-4-one] belongs not above 1000 nM; to `CN(CCc1ccc(Oc2cccc(C(F)(F)F)c2)cc1)c1nc(=O)c(Cc2cncnc2)c[nH]1` [E187, 2-(Methyl-{2-[4-(3-trifluoromethyl-phenoxy)-phenyl]-ethyl}-amino)-5-pyrimidin-5-ylmethyl-1H-pyrimidin-4-one], not above 1000 nM; to `COc1ncc(Cc2c[nH]c(NCCc3ccc(Oc4cccc(C(F)(F)F)c4)cc3)nc2=O)cn1` [E193, 5-(2-methoxy-pyrimidin-5-ylmethyl)-2-{2-[4-(3-trifluoromethyl-phenoxy)phenyl]-ethylamino}-1H-pyrimidin-4-one], not above 1000 nM.
On to `O=c1nc(NCCc2ccc(Oc3ccc(Cl)cc3)cc2)[nH]cc1Cc1cncnc1` [E194, 2-{2-[4-(4-Chloro-phenoxy)-phenyl]-ethylamino}-5-pyrimidin-5-ylmethyl-1H-pyrimidin-4-one], for which the IC50 was not above 1000 nM.
Under `Cc1ncc(Cc2c[nH]c(NCCc3ccc(Oc4ccc(C(F)(F)F)cn4)c(C#N)c3)nc2=O)cn1` [E203, 5-{2-[5-(2-Methyl-pyrimidin-5-ylmethyl)-4-oxo-1,4-dihydro-pyrimidin-2-ylamino]-ethyl}-2-(5-trifluoromethyl-pyridin-2-yloxy)-benzonitrile] stands not above 100 nM; under `Cc1ncc(Cc2c[nH]c(NCCc3ccc(Oc4ccc(C(F)(F)F)c(Cl)c4)cc3)nc2=O)cn1` [E207, 2-{2-[4-(3-chloro-4-trifluoromethyl-phenoxy)-phenyl]ethylamino}-5-(2-methyl-pyrimidin-5-ylmethyl)-1H-pyrimidin-4-one], not above 1000 nM.
To `Cc1ncc(Cc2c[nH]c(NCCc3ccc(Oc4ccc(C(F)(F)F)cn4)cc3)nc2=O)cn1` [E208, 5-(2-methyl-pyrimidin-5-ylmethyl)-2-{2-[4-(5-trifluoromethyl-pyridin-2-yloxy)phenyl]ethylamino}-1H-pyrimidin-4-one] belongs not above 1000 nM; to `O=c1ncc(Cc2c[nH]c(NCCc3ccc(Oc4ccc(Cl)c(C(F)(F)F)c4)cc3)nc2=O)c[nH]1` [E209, 2-{2-[4-(4-chloro-3-trifluoromethyl-phenoxy)-phenyl]ethylamino}-5-(2-oxo-1,2-dihydro-pyrimidin-5-ylmethyl)-1H-pyrimidin-4-one], not above 1000 nM.
As to `Cc1ncc(Cc2c[nH]c(NCCc3ccc(Oc4ccc(Cl)c(C(F)(F)F)c4)c(C#N)c3)nc2=O)cn1` [E211, 2-(4-Chloro-3-trifluoromethyl-phenoxy)-5-{2-[5-(2-methyl-pyrimidin-5-ylmethyl)-4-oxo-1,4-dihydro-pyrimidin-2-ylamino]-ethyl}-benzonitrile], the IC50 is not above 1000 nM.

The record behind these values is US8637536B2, “Pyrimidinone compounds for use in the treatment of diseases or conditions mediated by Lp-PLA2” (Glaxo Group Limited, priority 2010, dated 2014).
